What was measured:
[1] = test system: IκB; assay: TNFα stimulated IκB phosphorylation in proximal tubular cells, Western-blot; format: cell-based, mouse; conditions: proximal tubular cells treated with PPS (400 μg/ml, ½ hour) before TNFα 10 ng/ml
Method: The activation of NF-κB and mitogen activated protein kinases including p38, JNK (Jun N-terminal kinase), and ERK (extracellular signal regulated kinase) pathways play an essential role in proinflammatory actions of TNFα. Thus, it was examined whether PPS affected the phosphorylation of IκB, ERK, p38, and JNK by TNFα. Proximal tubular cells were allowed to grow to 70% confluency in […] petri-dish. Cell lysates were collected before or 15, 30, 60, and 120 minutes after TNFα treatment (10 ng/ml). Cells in some dishes were pre-incubated with PPS (400 μg/ml) for ½ hour before exposure to TNFα. The levels of phosphorylated IκB, ERK, p38, and JNK were determined by Western-blots. Briefly, equal amounts of protein samples (10-20 μg/lane) were loaded onto SDS-PAGE gels. After electrophoresis, proteins were transferred to nitrocellulose membranes and blotted with antibody against phosphorylated IκB, ERK, p38, or JNK (Cell signaling, Boston, Mass.). After the first analysis, the membranes were stripped to re-probe with antibody against total IκB, ERK, p38 or JNK, and ERK and finally with antibody against β-actin (Cell signaling, Boston, Mass.).

[2] = test system: phosphorylated NF-κB (p65 (Ser276)); assay: Immunostaining for nuclear phosphorylated NF-κB in kidney; format: in vivo, mouse; conditions: PPS treated 22 month-old diabetic kidney
Description: (§1) Paraffin sections from non-diabetic and diabetic mice were deparaffinized prior to staining for apoptosis, makers for inflammation such as macrophages (F4/80, 1:100, Caltag Laboratories, Burlingame, Calif.) and phosphorylated NF-κB (p65 (Ser276), 1:25, Cell Signaling Technology, Inc, Danvers, Mass.), markers for oxidative stress, i.e., nitrotyrosine (1:140, Upstate Biotechnology Inc, Billerica, Mass.) and malondialdehyde (MDA, 1:100, Alpha Diagnostic International Inc, San Antonio, Tex.), and markers for endoplasmic reticulum (ER) stress, i.e., phosphorylated pancreatic ER kinase (PERK, 1:5, Santa Cruz Biotechnology, Santa Cruz, Calif.), and phosphorylated eukaryotic initiation factor 2α (eIF2α, 1:50, Stressgen Bioreagents Corp, Norwalk, Conn.).
(§2) Stained sections were examined under light microscopy (Zeiss Axioskop, Germany). The cortical area of the kidney was digitized under ×10 objective low power with a Sony 3CCD color video camera and a meta imaging series software (Molecular Devices, Downingtown, Pa.). The area of positively stained tubules and glomeruli was measured and expressed as the percentage of total cortical area. The intensity of the staining was also assessed using the color differentiation program.

[3] = test system: macrophages (F4/80); assay: F4/80 immunostaining for macrophage infiltration in kidney; format: in vivo, mouse; conditions: PPS treated 22 month-old diabetic mice
Description: as §1, §2

[4] = test system: MMP-2; assay: Zymography of U937 cell supernatants, MMP-2; format: cell-based, human
Method: Human pro-monocytic U937 cells were obtained from American Type Culture Collection (Manassas, Va.) and grown in RPMI medium supplemented with 10% FBS. U937 cells were plated in six-well plates at a density of 5×10^6 cells/ml. The cells were then stimulated with 10 ng/ml TNF-α, in the presence or absence of either increasing concentrations of PPS (10-100 μg/ml) or heparin (100 μg/ml), and incubated at 37° C. for 3 hours. Following stimulation, cells were placed in 0.1% BSA-serum-free medium for 16-18 hours. The media was then collected, centrifuged, and supernatants were stored at −80° C. for the assessment of MMP activity. The cell number was determined by direct cell counting.
MMP activity in aortic extracts and conditioned media from monocytes was assessed, as previously described (Jacot T A, et al., Lab Invest. 1996; 75:791-79). Briefly, aortic segments were homogenized and extracted in RIPA buffer (25 mM Tris, pH 7.4, 150 mM KCl, 5 mM EDTA, 1% Nonidet P-40, 0.5% sodium deoxycholate, and 0.1% SDS). Insoluble material was precipitated by centrifugation, and soluble extracts were collected and stored at −20° C. for further analysis. For in vitro experiments, cell supernatants were centrifuged to remove cellular debris, and diluted appropriately to normalize for cell number. Aortic extracts and conditioned media were then mixed with sample buffer (1% SDS, 0.08 M Tris pH 6.8, 4% glycerol, and 0.006% bromophenol blue), and loaded onto a 10% gelatin polyacrylamide gel, and processed as described (Jacot T A, et al., Lab Invest. 1996; 75:791-79). For reverse zymography, samples were loaded onto a 15% gelatin polyacrylamide gel containing 0.5% porcine gelatin and 6 μg recombinant gelatinase A, and processed as described (Elliot S J, et al., J Am Soc Nephrol. 1999; 10: 62-68).

[5] = test system: Watanabe heritable hypercholesterolemic rabbits (WHHL); assay: Progression of established atherosclerosis in WHHL rabbits, morphologic analysis of aorta; format: in vivo, rabbit
Method: The degree of aortic atherosclerosis was evaluated by measuring the percent lesion area on the surface of the whole intimal (surface area of lesion/surface area of the whole intima) in the region between the aortic arch and the emergence of the renal arteries. Moreover, serial cross-sectional tissue samples (≈3 mm in length) taken from the aortic arch to the […] were post-fixed in paraformaldehyde (4% wt/vol.) and processed for histological analysis. The specimens were then embedded in paraffin, and 4-μm-thick sections were stained with hematoxylin and eosin (H&E). The ratio of intima to media (I/M ratio) was measured by computer-aided morphometric analysis in three consecutive cross-sectional sections of the aortic arch and the abdominal aorta, near the origin of the renal arteries, as described (Shindo J, et al., Circulation 1999; 99: 2150-2156). To avoid errors due to the heterogeneity of atherosclerotic lesions, the cross sections containing the thickest atherosclerotic lesions were selected individually from the aortic arch and used for the analysis of the cross-sectional areas of atherosclerotic lesions (Shindo J, et al., Circulation 1999; 99: 2150-2156). Percentage of the area occupied by macrophages and collagen were measured by computer-aided morphometric analysis on aortic cross sections stained immunohistochemically with RAM-11 antibody (DAKO Corp.) or Sirius red, respectively.

[6] = U937 cells, dose-response experiments

pentosan polysulfate [PPS]
decrease in the levels of IκB phosphorylation [1]: 40-60% | number of nuclei stained positively for phosphorylated NF-κB (p65 (Ser276)) [2]: noticeably reduced | macrophage infiltration in kidney (F4/80 immunostaining) [3]: largely prevented | MMP-2 activity, reduction by PPS treatment ([4]; U937 cells stimulated with 10 ng/ml TNF-α, 100 μg/ml PPS, P<0.05): 37.73%±12.17% | concentration at which the PPS effect on MMP activity was evident [4, 6]: 25 µg/mL | concentration at which the PPS effect on MMP activity was maximal [4, 6]: 75 to 100 µg/mL | MMP-2 activity, decrease by PPS treatment ([4]; unstimulated U937 cells, 100 μg/ml PPS, figure data as percent of control, P<0.01): 45.40%±9.68% | intima/media ratio (I/M) compared to WHHL rabbits fed a HC-diet for 45 days ([5]; HC-diet 45 days, then oral PPS for an additional 30 days): not significantly different | area containing macrophages, relative to the total plaque area ([5]; RAM-11 staining, aortic cross sections, 75 days HC-diet, PPS last 30 days, mean±SEM): 35.56±1.51% | percent surface area of the intima occupied by lesions, reduction compared to water-treated controls ([5]; WHHL rabbits, HC-diet 75 days, PPS 30 mg/kg BW daily in drinking water for the last 30 days): approximately one-third | intima/media ratio (I/M) compared to water-treated controls ([5]; aortic arch and abdominal aorta, 75 days HC-diet, oral PPS for the last 30 days): significantly lower | Sirius red staining (collagen) in plaques ([5]; aortic arch sections, 75 days HC-diet, PPS last 30 days, mean±SEM): 47.43±2.93%

From patent US8871741B2, “Inhibition of TNF-α induced activation of NFKB by pentosan polysulfate” (Icahn School of Medicine at Mount Sinai, priority 2010, dated 2014)
